Laboratory results reported in patent US6472348B1, “Pyridone derivatives and herbicides” (Kumiai Chemical Industry Co., Ltd., priority 1996, dated 2002).

Legend:
wheat (Tr) = test: Test Example 9: crop plant selectivity by upland field foliage treatment (wheat), phytotoxicity; conditions: dose 1.6 g ai/10a, 14th day after treatment;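 note: grade of crop injury; 5 = at least 90%; 4 = 70 to 90%; 3 = 50 to 70%; 2 = 30 to 50%; 1 = 10 to 30%; 0 = under 10%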
Method in brief: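 Read-out: weed control and wheat injury, rated by a defined scoring standard 14 days after foliar application.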

slender amaranth (Am) [1] = test: Test Example 6: crop plant selectivity by upland field soil treatment (soybean), herbicidal effects; format: in vivo; parameters: scale not given here; conditions: 21st day after application
Method in brief: (§1)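 Greenhouse pot test with soil-applied compound after sowing soybean and weeds in sand; effects graded on day 21 after application.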

green foxtail (Se) = test: as above; format: in vivo; parameters: scale not given here; conditions: 21st day after application
Method in brief: as §1

pale smartweed (Po) [2] = test: as above; format: in vivo; parameters: scale not given here; conditions: 21st day after application
Method in brief: as §1

slender amaranth (Am) [3] = test: Test Example 11: crop plant selectivity by upland field foliage treatment (corn), herbicidal effects; format: in vivo; parameters: scale not given here; conditions: dose 1.6 g ai/10a
Method in brief: (§2)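 Corn and the weed species were sown together in sand-filled pots and grown in a greenhouse for 2 weeks before foliar treatment. Herbicidal effect was scored on day 14 after treatment against a graded standard scale, with corn phytotoxicity scored alongside.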

[4] = system: common lambsquarters (Ch); test: as above; format: in vivo; parameters: scale not given here; conditions: dose 1.6 g ai/10a
Method in brief: as §2

China jute (Ab) = test: as above; format: in vivo; parameters: scale not given here; conditions: dose 1.6 g ai/10a
Method in brief: as §2

pale smartweed (Po) [5] = test: as above; format: in vivo; parameters: scale not given here; conditions: dose 1.6 g ai/10a
Method in brief: as §2

[6] = upland field foliage treatment (corn test), 14th day after treatment

Cn1c(C(F)(F)F)ccc(-c2cc(OCCCl)c(Cl)cc2F)c1=O [1-171]
5: Herbicidal effects Am (slender amaranth (Am) [1]; dose 6.3 g ai/10a) | Herbicidal effects Se (green foxtail (Se); dose 6.3 g ai/10a) | Herbicidal effects Po (pale smartweed (Po) [2]; dose 6.3 g ai/10a) | Herbicidal effects Am (slender amaranth (Am) [3]; [6]) | Herbicidal effects Ch [4, 6] | Herbicidal effects Ab (China jute (Ab); [6]) | Herbicidal effects Po (pale smartweed (Po) [5]; [6])
2: Phytotoxicity Tr (wheat (Tr))

CCOCOc1cc(-c2ccc(C(F)(F)F)n(C)c2=O)c(F)cc1Cl [1-181]
2: Phytotoxicity Tr (wheat (Tr))
5: Herbicidal effects Am (slender amaranth (Am) [1]; dose 6.3 g ai/10a) | Herbicidal effects Se (green foxtail (Se); dose 6.3 g ai/10a) | Herbicidal effects Po (pale smartweed (Po) [2]; dose 6.3 g ai/10a) | Herbicidal effects Am (slender amaranth (Am) [3]; [6]) | Herbicidal effects Ch [4, 6] | Herbicidal effects Ab (China jute (Ab); [6]) | Herbicidal effects Po (pale smartweed (Po) [5]; [6])

C#CC(C)Oc1cc(Cl)cc(F)c1-c1ccc(C(F)(F)F)n(C)c1=O (centres unmarked) [1′-5]
5: Herbicidal effects Am (slender amaranth (Am) [1]; dose 1.6 g ai/10a) | Herbicidal effects Am (slender amaranth (Am) [1]; dose 6.3 g ai/10a) | Herbicidal effects Se (green foxtail (Se); dose 6.3 g ai/10a) | Herbicidal effects Po (pale smartweed (Po) [2]; dose 1.6 g ai/10a) | Herbicidal effects Po (pale smartweed (Po) [2]; dose 6.3 g ai/10a) | Herbicidal effects Am (slender amaranth (Am) [3]; [6]) | Herbicidal effects Ch [4, 6] | Herbicidal effects Ab (China jute (Ab); [6]) | Herbicidal effects Po (pale smartweed (Po) [5]; [6])
1: Phytotoxicity Tr (wheat (Tr))
4: Herbicidal effects Se (green foxtail (Se); dose 1.6 g ai/10a)

C=CC(C)Oc1cc(-c2ccc(C(F)(F)F)n(C)c2=O)c(F)cc1Cl (centres unmarked) [Compound 1-182]
1: Phytotoxicity Tr (wheat (Tr))
5: Herbicidal effects Am (slender amaranth (Am) [1]; dose 6.3 g ai/10a) | Herbicidal effects Se (green foxtail (Se); dose 6.3 g ai/10a) | Herbicidal effects Po (pale smartweed (Po) [2]; dose 6.3 g ai/10a) | Herbicidal effects Am (slender amaranth (Am) [3]; [6]) | Herbicidal effects Ch [4, 6] | Herbicidal effects Ab (China jute (Ab); [6]) | Herbicidal effects Po (pale smartweed (Po) [5]; [6])

CCON=Cc1cc(-c2ccc(C(F)(F)F)n(C)c2=O)c(F)cc1Cl [Compound 1-187]
5: Herbicidal effects Am (slender amaranth (Am) [1]; dose 6.3 g ai/10a) | Herbicidal effects Se (green foxtail (Se); dose 6.3 g ai/10a) | Herbicidal effects Po (pale smartweed (Po) [2]; dose 6.3 g ai/10a) | Herbicidal effects Am (slender amaranth (Am) [3]; [6]) | Herbicidal effects Ch [4, 6] | Herbicidal effects Ab (China jute (Ab); [6]) | Herbicidal effects Po (pale smartweed (Po) [5]; [6])
2: Phytotoxicity Tr (wheat (Tr))

CCOC(=O)CON=Cc1cc(-c2ccc(C(F)(F)F)n(C)c2=O)c(F)cc1Cl [Compound 1-191]
2: Phytotoxicity Tr (wheat (Tr))
5: Herbicidal effects Am (slender amaranth (Am) [1]; dose 6.3 g ai/10a) | Herbicidal effects Se (green foxtail (Se); dose 6.3 g ai/10a) | Herbicidal effects Po (pale smartweed (Po) [2]; dose 6.3 g ai/10a) | Herbicidal effects Am (slender amaranth (Am) [3]; [6]) | Herbicidal effects Ch [4, 6] | Herbicidal effects Ab (China jute (Ab); [6]) | Herbicidal effects Po (pale smartweed (Po) [5]; [6])

C=CC(O)c1cc(-c2ccc(C(F)(F)F)n(C)c2=O)c(F)cc1Cl (centres unmarked) [Compound 1-197]
2: Phytotoxicity Tr (wheat (Tr))
5: Herbicidal effects Am (slender amaranth (Am) [1]; dose 6.3 g ai/10a) | Herbicidal effects Se (green foxtail (Se); dose 6.3 g ai/10a) | Herbicidal effects Po (pale smartweed (Po) [2]; dose 6.3 g ai/10a) | Herbicidal effects Am (slender amaranth (Am) [3]; [6]) | Herbicidal effects Ch [4, 6] | Herbicidal effects Ab (China jute (Ab); [6]) | Herbicidal effects Po (pale smartweed (Po) [5]; [6])

CSCOc1cc(-c2ccc(C(F)(F)F)n(C)c2=O)c(F)cc1Cl [Compound 1-208]
2: Phytotoxicity Tr (wheat (Tr))
5: Herbicidal effects Am (slender amaranth (Am) [1]; dose 6.3 g ai/10a) | Herbicidal effects Se (green foxtail (Se); dose 6.3 g ai/10a) | Herbicidal effects Am (slender amaranth (Am) [3]; [6]) | Herbicidal effects Ch [4, 6] | Herbicidal effects Ab (China jute (Ab); [6]) | Herbicidal effects Po (pale smartweed (Po) [5]; [6])
4: Herbicidal effects Po (pale smartweed (Po) [2]; dose 6.3 g ai/10a)

C#CCN1C(=O)COc2cc(Cl)c(-c3ccc(C(F)(F)F)n(C)c3=O)cc21 [Compound 2-25]
5: Herbicidal effects Am (slender amaranth (Am) [1]; dose 1.6 g ai/10a) | Herbicidal effects Am (slender amaranth (Am) [1]; dose 6.3 g ai/10a) | Herbicidal effects Se (green foxtail (Se); dose 1.6 g ai/10a) | Herbicidal effects Se (green foxtail (Se); dose 6.3 g ai/10a) | Herbicidal effects Po (pale smartweed (Po) [2]; dose 1.6 g ai/10a) | Herbicidal effects Po (pale smartweed (Po) [2]; dose 6.3 g ai/10a) | Herbicidal effects Am (slender amaranth (Am) [3]; [6]) | Herbicidal effects Ch [4, 6] | Herbicidal effects Ab (China jute (Ab); [6]) | Herbicidal effects Po (pale smartweed (Po) [5]; [6])
2: Phytotoxicity Tr (wheat (Tr))

C=CCN1C(=O)COc2cc(Cl)c(-c3ccc(C(F)(F)F)n(C)c3=O)cc21 [Compound 2-26]
2: Phytotoxicity Tr (wheat (Tr))
5: Herbicidal effects Am (slender amaranth (Am) [1]; dose 6.3 g ai/10a) | Herbicidal effects Se (green foxtail (Se); dose 6.3 g ai/10a) | Herbicidal effects Po (pale smartweed (Po) [2]; dose 6.3 g ai/10a) | Herbicidal effects Am (slender amaranth (Am) [3]; [6]) | Herbicidal effects Ch [4, 6] | Herbicidal effects Ab (China jute (Ab); [6]) | Herbicidal effects Po (pale smartweed (Po) [5]; [6])

CCCc1cc2c(-c3ccc(C(F)(F)F)n(C)c3=O)c(F)cc(Cl)c2o1 [Compound 4-3]
5: Herbicidal effects Am (slender amaranth (Am) [1]; dose 6.3 g ai/10a) | Herbicidal effects Se (green foxtail (Se); dose 6.3 g ai/10a) | Herbicidal effects Po (pale smartweed (Po) [2]; dose 6.3 g ai/10a) | Herbicidal effects Am (slender amaranth (Am) [3]; [6]) | Herbicidal effects Ch [4, 6] | Herbicidal effects Ab (China jute (Ab); [6]) | Herbicidal effects Po (pale smartweed (Po) [5]; [6])
2: Phytotoxicity Tr (wheat (Tr))

CCc1cc2c(Cl)cc(F)c(-c3ccc(C(F)(F)F)n(C)c3=O)c2o1 [Compound 5-2]
2: Phytotoxicity Tr (wheat (Tr))
5: Herbicidal effects Am (slender amaranth (Am) [1]; dose 6.3 g ai/10a) | Herbicidal effects Se (green foxtail (Se); dose 6.3 g ai/10a) | Herbicidal effects Po (pale smartweed (Po) [2]; dose 6.3 g ai/10a) | Herbicidal effects Am (slender amaranth (Am) [3]; slender amaranth, foliage treatment, evaluated on 14th day after treatment, index per Table 47) | Herbicidal effects Ch ([4]; common lambsquarters, foliage treatment, evaluated on 14th day after treatment, index per Table 47) | Herbicidal effects Ab (China jute (Ab); China jute, foliage treatment, evaluated on 14th day after treatment, index per Table 47) | Herbicidal effects Po (pale smartweed (Po) [5]; pale smartweed, foliage treatment, evaluated on 14th day after treatment, index per Table 47)

Cn1c(C(F)(F)F)ccc(-c2cc(C#N)c(Cl)cc2F)c1=O [Compound No. 1-119, 3-(4-chloro-5-cyano-2-fluorophenyl)-1-methyl-6-trifluoromethyl-2(1H)-pyridone]
4: Herbicidal effects Ab (China jute (Ab); [6])
5: Herbicidal effects Am (slender amaranth (Am) [1]; dose 6.3 g ai/10a) | Herbicidal effects Se (green foxtail (Se); dose 6.3 g ai/10a) | Herbicidal effects Po (pale smartweed (Po) [2]; dose 6.3 g ai/10a) | Herbicidal effects Am (slender amaranth (Am) [3]; [6]) | Herbicidal effects Ch [4, 6] | Herbicidal effects Po (pale smartweed (Po) [5]; [6])
2: Phytotoxicity Tr (wheat (Tr))

CCCC(=O)c1cc(-c2ccc(C(F)(F)F)n(C)c2=O)c(F)cc1Cl [Compound No. 1-194, 3-[4-chloro-2-fluoro-5-(1-oxobutyl)phenyl]-1-methyl-6-trifluoromethyl-2(1H)-pyridone]
1: Phytotoxicity Tr (wheat (Tr))
5: Herbicidal effects Am (slender amaranth (Am) [1]; dose 6.3 g ai/10a) | Herbicidal effects Se (green foxtail (Se); dose 6.3 g ai/10a) | Herbicidal effects Po (pale smartweed (Po) [2]; dose 6.3 g ai/10a) | Herbicidal effects Am (slender amaranth (Am) [3]; [6]) | Herbicidal effects Ch [4, 6] | Herbicidal effects Ab (China jute (Ab); [6]) | Herbicidal effects Po (pale smartweed (Po) [5]; [6])

Cn1c(C(F)(F)F)ccc(-c2c(F)cc(Cl)c3oc(CO)cc23)c1=O [Compound No. 4-5, 3-(7-chloro-5-fluoro-2-hydroxymethylbenzofuran-4-yl)-1-methyl-6-trifluoromethyl-2-(1H)-pyridone]
2: Phytotoxicity Tr (wheat (Tr))
5: Herbicidal effects Am (slender amaranth (Am) [1]; dose 6.3 g ai/10a) | Herbicidal effects Se (green foxtail (Se); dose 6.3 g ai/10a) | Herbicidal effects Po (pale smartweed (Po) [2]; dose 6.3 g ai/10a) | Herbicidal effects Am (slender amaranth (Am) [3]; [6]) | Herbicidal effects Ch [4, 6] | Herbicidal effects Ab (China jute (Ab); [6]) | Herbicidal effects Po (pale smartweed (Po) [5]; [6])

Cn1c(C(F)(F)F)ccc(-c2c(F)cc(Cl)c3occc23)c1=O [Compound No. 4-28, 3-(7-chloro-5-fluorobenzofuran-4-yl)-1-methyl-6-trifluoromethyl-2-(1H)-pyridone]
2: Phytotoxicity Tr (wheat (Tr))
5: Herbicidal effects Am (slender amaranth (Am) [1]; dose 1.6 g ai/10a) | Herbicidal effects Se (green foxtail (Se); dose 1.6 g ai/10a) | Herbicidal effects Po (pale smartweed (Po) [2]; dose 1.6 g ai/10a) | Herbicidal effects Am (slender amaranth (Am) [3]; [6]) | Herbicidal effects Ch [4, 6] | Herbicidal effects Ab (China jute (Ab); [6]) | Herbicidal effects Po (pale smartweed (Po) [5]; [6])
